Earlier results on 1 compound are cited in paper PMC3583338 (Clinical pharmacology and therapeutics, 2008).

`CC(C)c1nc(CN(C)C(=O)N[C@H](C(=O)N[C@@H](Cc2ccccc2)C[C@H](O)[C@H](Cc2ccccc2)NC(=O)OCc2cncs2)C(C)C)cs1` [ritonavir]: in the data set on OATP, the “inhibition of OATP-mediated fexofenadine transport” value is reported as 13%. Further, the “P-gp mRNA expression” value in the data set on P-gp was “moderately induced”. Besides, the “effect on OATP1B1” value with OATP1B1 is given as “little or no effect”. Further, the “effect on OATP1B3” value in the data set on OATP1B3 is reported as “little or no effect”.
